Read-outs that look alike come from different tables or passages of the source.
How the values were obtained:
Asparagus Beetles Larvae = assay: Field trial, stomach poison test; type: in vivo
Procedure, shortened: (§1)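 Spray (10 psi) or dip leaves from infested plants in test solution; air-dry; put in Petri dish; add 5 or 10 insects; score mortality 0–9 at 24/48/72 h. 1–2 reps, usually 2–3 rates.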

Fall Webworm = assay: Field trial, stomach poison test; type: in vivo
Procedure, shortened: as §1

Armyworm, P. Unipuncta = assay: Field trial, contact poison test; type: in vivo
Procedure, shortened: (§2)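 Each infested plant sits in a water-filled bottle to prevent wilting, and the test compound is then atomized onto it at 10 psi at various concentrations. Falling dead insects are collected, and mortality is rated 0 (0-10%) to 9 (91-100%) at up to 72 h.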

Eastern Tent Caterpillar = assay: Field trial, contact poison test; type: in vivo
Procedure, shortened: as §2

Elm Leaf Beetle = assay: Field trial, contact poison test; type: in vivo
Procedure, shortened: as §2

Walnut Caterpillar = assay: Field trial, contact poison test; type: in vivo
Procedure, shortened: as §2

Bagworms = assay: Field trial, contact poison test; type: in vivo; design: key: 0-9 scale: 0 = 0-10% mortality, 9 = 91-100% mortality
Description: Infested plants are placed in 6 oz. prescription bottles filled with water to keep them from wilting. Cellucotton is wrapped around the plant stem and squeezed into the bottle neck to prevent the insects from drowning.
A DeVilbiss Special Atomizer (5004) is used at 10 psi to spray the test plant with different concentrations of compounds. The atomizer is held at arm's length to prevent blowing the insects off the host plant. After treating, the bottles are placed on a table covered with brown wrapping paper to catch the dead insects as they drop from the plant. The plants are spaced so the leaves or plants are not touching one another.
The results are read at 24, 48, and 72 hours when applicable. The rating scale is 0 to 9 where 0 = 0-10 percent and 9 = 91-100 percent mortality.
Using the above methods, field trials were carried out against species of 5 orders of insects. The results, which are summarized in the following tables, give the average mortality for the particular insect with a given benzimidazole for each concentration employed. […] These tables contain all results obtained during the summer trials.

Cabbage Looper = assay: Field trial (first summer), stomach; type: in vivo; conditions: 500 ppm
Variegated Cutworm = assay: Field trial (first summer), stomach; type: in vivo; conditions: 500 ppm
American Roach = assay: Field trial (first summer), contact; type: in vivo; conditions: 500 ppm
Buffalo Tree Hopper = assay: Field trial (first summer), contact; type: in vivo; conditions: 125 ppm
German Roach = assay: Field trial (first summer), contact; type: in vivo; conditions: 500 ppm
Tussock Moth = assay: Field trial (first summer), contact; type: in vivo; conditions: 750 ppm
Acute oral toxicity = conditions: in vivo, read-out: Est. LD50
Description: While the compounds of this invention resemble the organic phosphates in being toxic upon ingestion, they differ from the organic phosphates in having a low toxicity when applied to the skin. The following charts give the estimated acute oral and acute dermal toxicities of 2,6-bis(trifluoromethyl)-4-nitrobenzimidazole in several species of mammals.

[1] = tested on: Two-Spotted Spider Mite (2-SSM); assay: Miticide test, acute mortality, foliar spray; type: in vivo, Tetranychus urticae
Procedure: Each 5 mg. sample of technical compound preweighed at Greenfield was dissolved in 2.5 ml. of acetone and diluted with 247.5 ml. of water containing a combination of […]
(§3) The treated cuttings were stored in the greenhouse for 24 hours before evaluation under a binocular disecting microscope in the laboratory. In evaluating the results of the miticide test, each treated cutting was removed from the test tube, observed for live and dead mites at 14 × magnification, and returned immediately to the test tube. A scale of 0-9 was used as before.
The test employing two-spotted spider mites was conducted in similar fashion except that the mites were maintained on squash seedlings or squash cuttings.

Citrus Rust Mite (CRM) = assay: Miticide test, acute mortality, foliar spray; type: in vivo
Procedure: Citrus cuttings were obtained and prepared for testing within 24 hours prior to inoculation with citrus rust mites. To prepare the cuttings, terminals of branches 12 to 14 inches in length were cut from temple orange trees, immediately placed in tap water and taken into the laboratory. Uniform hardwood cuttings, 3 to 4 inches in length, were cut from the branches, all but one hardened leaf was removed from the cuttings, and the remaining leaf was wiped clean with a cotton pad soaked in 10% ethanol solution. Each cutting was immediately placed in tap water in a test tube with the closed leaf extending out of the test tube. Then, a ring of melted lanolin was applied around the petiole to prevent migration of mites from the leaf. One cutting was used for each replicate.
When the leaves were dry immediately after cleaning, citrus rust mites were transferred to the test leaves by cutting a heavily infested colony leaf (from a source colony maintained on citrus seedlings) into 20 to 22 sections (approximately 0.25 by 0.5 inches in size) and using forceps to place 1 section on each leaf cutting. As the section became desiccated the mites moved to the whole leaf and in 20 hours the sections were removed from the leaves for treatment application.
Treatments were applied within 24 hours after inoculation by removing the cuttings from the test tube and submerging the leaves in the treatment solution for 5 seconds by hand and immediately returning the cutting to the test tube. […]
as §3

Compound	average mortality rating (Armyworm, P. Unipuncta; 125 ppm)	average mortality rating (Armyworm, P. Unipuncta; 250 ppm)	average mortality rating (Armyworm, P. Unipuncta; 500 ppm)	average mortality rating (Eastern Tent Caterpillar; 50 ppm)	average mortality rating (Eastern Tent Caterpillar; 100 ppm)	average mortality rating (Eastern Tent Caterpillar; 250 ppm)	average mortality rating (Eastern Tent Caterpillar; 500 ppm)	average mortality rating (Elm Leaf Beetle; 250 ppm)	average mortality rating (Elm Leaf Beetle; 500 ppm)	average mortality rating (Elm Leaf Beetle; 1000 ppm)	average mortality rating (Walnut Caterpillar; 25 ppm)	average mortality rating (Walnut Caterpillar; 50 ppm)	average mortality rating (Walnut Caterpillar; 100 ppm)	average mortality rating (Walnut Caterpillar; 250 ppm)	average mortality rating (Bagworms; 125 ppm)	average mortality rating (Bagworms; 250 ppm)	average mortality rating (Bagworms; 500 ppm)	average mortality rating (Bagworms; 750 ppm)	average mortality rating (Bagworms; 1000 ppm)	average mortality rating (Bagworms; 1500 ppm)	also measured
O=[N+]([O-])c1cc(C(F)(F)F)cc2nc(C(F)(F)F)[nH]c12 [A, 2,6-bis(trifluoromethyl)-4-nitrobenzimidazole]	0 (0-10 percent)	1	3	0 (0-10 percent)	3	5	5	0 (0-10 percent)	7	9 (91-100 percent mortality)	1	1	1	7	0 (0-10 percent)	4	4	1	0 (0-10 percent)	0 (0-10 percent)	average mortality rating (Asparagus Beetles Larvae; 5 ppm): 3; average mortality rating (Asparagus Beetles Larvae; 10 ppm): 7; average mortality rating (Asparagus Beetles Larvae; 25 ppm): 7; average mortality rating (Fall Webworm; 250 ppm): 9 (91-100 percent mortality); average mortality rating (Fall Webworm; 500 ppm): 0 (0-10 percent); average mortality rating (Fall Webworm; 750 ppm): 0 (0-10 percent); average mortality rating (Fall Webworm; 1000 ppm): 0 (0-10 percent); insect mortality rating (Cabbage Looper): 9 (91-100 percent mortality); insect mortality rating (Variegated Cutworm): 5; insect mortality rating (American Roach): 9 (91-100 percent mortality); insect mortality rating (Buffalo Tree Hopper): 9 (91-100 percent mortality); insect mortality rating (German Roach): 8; insect mortality rating (Tussock Moth): 9 (91-100 percent mortality); LD50 (Acute oral toxicity; guinea pig, male): 15 mg/kg; LD50 (Acute oral toxicity; mouse, female): 27 mg/kg; LD50 (Acute oral toxicity; rat, female): 19 to 22 mg/kg; LD50 (Acute oral toxicity; rat, male): 16 to 20 mg/kg
CC(C)OC(=O)n1c(C(F)(F)F)nc2c([N+](=O)[O-])cc(C(F)(F)F)cc21 [I, isopropyl 2,6-bis(trifluoromethyl)-4-nitro-1-benzimidazolecarboxylate]	0 (0-10 percent)	0 (0-10 percent)	0 (0-10 percent)	0 (0-10 percent)	1	3	6	1	1	1	0 (0-10 percent)	1	2	3	1	4	5	2	1	0 (0-10 percent)	average mortality rating (Eastern Tent Caterpillar; 1000 ppm): 5; acute mortality rating ([1]; 6.25 ppm): 3; acute mortality rating ([1]; 12.5 ppm): 2; acute mortality rating ([1]; 25 ppm): 8; acute mortality rating ([1]; 50 ppm): 8; acute mortality rating ([1]; 100 ppm): 8; acute mortality rating (Citrus Rust Mite (CRM); 6.25 ppm, after 24 hours): 5; acute mortality rating (Citrus Rust Mite (CRM); 12.5 ppm, after 24 hours): 7; acute mortality rating (Citrus Rust Mite (CRM); 25 ppm, after 24 hours): 9 (91-100 percent mortality); acute mortality rating (Citrus Rust Mite (CRM); 50 ppm, after 24 hours): 9 (91-100 percent mortality); acute mortality rating (Citrus Rust Mite (CRM); 100 ppm, after 24 hours): 9 (91-100 percent mortality)
CCCCCCOC(=O)n1c(C(F)(F)F)nc2c([N+](=O)[O-])cc(C(F)(F)F)cc21 [E, n-hexyl 2,6-bis(trifluoromethyl)-4-nitro-1-benzimidazolecarboxylate]	–	–	–	–	–	–	–	–	–	–	–	–	–	–	–	–	–	–	–	–	acute mortality rating ([1]; 6.25 ppm): 3; acute mortality rating ([1]; 12.5 ppm): 2; acute mortality rating ([1]; 25 ppm): 5; acute mortality rating ([1]; 50 ppm): 9 (91-100 percent mortality); acute mortality rating ([1]; 100 ppm): 9 (91-100 percent mortality); acute mortality rating (Citrus Rust Mite (CRM); 6.25 ppm, after 48 hours): 4; acute mortality rating (Citrus Rust Mite (CRM); 12.5 ppm, after 48 hours): 8; acute mortality rating (Citrus Rust Mite (CRM); 25 ppm, after 48 hours): 9 (91-100 percent mortality); acute mortality rating (Citrus Rust Mite (CRM); 50 ppm, after 48 hours): 9 (91-100 percent mortality); acute mortality rating (Citrus Rust Mite (CRM); 100 ppm, after 48 hours): 9 (91-100 percent mortality)

Reference: patent US4122184A, “Benzimidazole insecticides” (priority 1977, dated 1978)
